Like-named read-outs stand apart in the source and are kept apart here.
Legend:
[1] = biological target: T1, topoisomerase I (Topo I) (Homo sapiens, UniProt P11387); assay: Topo I enzyme-inhibitory activity by agarose-gel electrophoresis (plasmid relaxation); assay type: biochemical
T1 sequence (P11387 1-765): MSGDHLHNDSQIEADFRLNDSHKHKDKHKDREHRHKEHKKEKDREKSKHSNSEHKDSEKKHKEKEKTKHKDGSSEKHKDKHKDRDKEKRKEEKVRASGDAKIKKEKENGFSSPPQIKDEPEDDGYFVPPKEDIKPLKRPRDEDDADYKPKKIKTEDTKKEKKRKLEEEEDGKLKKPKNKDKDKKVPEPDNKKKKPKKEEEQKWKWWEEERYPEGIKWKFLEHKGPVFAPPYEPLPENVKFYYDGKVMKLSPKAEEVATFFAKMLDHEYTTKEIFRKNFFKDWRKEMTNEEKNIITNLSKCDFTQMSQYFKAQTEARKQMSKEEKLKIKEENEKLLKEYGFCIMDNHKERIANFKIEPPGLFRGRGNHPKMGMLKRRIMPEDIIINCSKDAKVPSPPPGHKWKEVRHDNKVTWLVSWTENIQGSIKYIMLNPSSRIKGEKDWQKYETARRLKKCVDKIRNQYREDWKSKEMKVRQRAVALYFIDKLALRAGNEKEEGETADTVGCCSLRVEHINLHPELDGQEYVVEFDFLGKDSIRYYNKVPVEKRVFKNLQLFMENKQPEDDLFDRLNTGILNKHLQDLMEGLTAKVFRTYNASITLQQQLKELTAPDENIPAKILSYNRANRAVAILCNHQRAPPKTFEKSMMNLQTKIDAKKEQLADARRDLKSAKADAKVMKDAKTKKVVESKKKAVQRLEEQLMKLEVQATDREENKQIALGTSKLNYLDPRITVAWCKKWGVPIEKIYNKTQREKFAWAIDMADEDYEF
How it was run: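 Supercoiled pNO1 plasmid (0.5 µg) was relaxed by Topo I (0.75 U) in 20 mM Tris-HCl pH 7.5, 200 mM NaCl, 0.25 mM EDTA, 5 % glycerol, 5 % DMSO final, for 30 min at 37 °C. Supercoiled band intensity on agarose gel was normalized to no-enzyme and vehicle controls. IC50 from a four-parameter logistic fit.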

[2] = test system: HCT116 cells; assay: Inhibition of cell proliferation by CTG (CellTiter-Glo) luminescence assay; assay type: cell-based; conditions: Homo sapiens, read-out: HCT116, IC50
How it was run: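 Nine-point 1:3 dilutions applied to HCT116 cells (2 000/well, McCoy's 5a + 10 % FBS) for 72 h at 37 °C, final DMSO 0.25 %. Viability read by CellTiter-Glo luminescence; % inhibition versus DMSO controls fitted to four-parameter logistic for IC50.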

[3] = in vivo; conditions: male, CD-1, mouse
Procedure: Test Example 3. Pharmacokinetic Study for Determining Compound Concentrations in Mice by LC-MS/MS
Principle: LC-MS/MS is used to quantify the plasma concentrations of the test article at successive time points, generating an in-vivo pharmacokinetic profile.
Procedure: The test compound was dissolved in DMSO to prepare a 10 mg/mL stock solution. This stock was further diluted to 1 mg/mL with a vehicle consisting of 10 % DMSO + 10 % Solutol HS-15 + 80 % saline. Male CD-1 mice (JH Laboratory Animal Co., LTD) were employed; six animals were assigned per compound group. […] Serial blood samples (~50 µL whole blood, K2EDTA anticoagulant) were collected at 0.083, 0.25, 0.5, 1, 2, 4, 8 and 24 h (three mice per time point in a crossover design). Blood was centrifuged at 6 000 g for 5 min at 4 °C; plasma was harvested and stored at -70 °C until analysis. Plasma drug concentrations were determined by LC-MS/MS.
Calibration Curve and QC Preparation: Working solutions were prepared by dilution with MeOH:H2O (1:1). For each calibration or QC level, 3 µL of working solution was spiked into 57 µL of blank mouse plasma.
Sample Processing: To 30 µL of plasma was added 200 µL of methanol containing the internal standard (propranolol, 40 ng mL^-1). After vortex-mixing for 1 min, the mixture was centrifuged at 12 000 rpm for 10 min. A 100 µL aliquot of the supernatant was transferred to a clean plate for injection.
Pharmacokinetic Analysis: Concentration-time data were analyzed with WinNonlin 8.2 using a non-compartmental approach to derive PK parameters including Cmax, Tmax, AUC and terminal elimination half-life (t1/2). AUC was calculated by the linear-up/log-down trapezoidal method. Table 3. Pk parameters of compounds

[4] = test system: Human colon cancer HCT116 cells; assay: Subcutaneous xenograft model of human colon cancer HCT-116 cells; assay type: in vivo, BALB/c nude mice; conditions: day 21 post-treatment, 5 mg/kg, IV, BIW×3W; for tumor volume: vehicle control 1146 mm^3
Procedure: Test Example 4. Pharmacodynamic Evaluation of Compound 2, Compound 250, and Compound 253 in a Subcutaneous Xenograft Model of Human Colon Cancer HCT-116 Cells in BALB/c Female Nude Mice
Human colon cancer HCT116 cells were cultured in vitro as monolayers in McCoys 5a medium supplemented with 10% fetal bovine serum and 1% penicillin/streptomycin/amphotericin B at 37 °C in a 5% CO2 incubator. Cells were routinely passaged twice a week using trypsin-EDTA digestion. When cells reached 80%-90% confluence and the required cell number was achieved, cells were harvested. HCT116 cells (0.1 mL, 5×10^6 cells) were subcutaneously inoculated into the right dorsal region near the upper forelimb of each mouse (BALB/c nude mice, female, 6-8 weeks old). Treatment was initiated when the average tumor volume reached approximately 158 mm^3. Tumor volume was measured twice weekly. At the end of the experiment, the tumor growth inhibition rate (TGI) was calculated as: TGI (%) = [1 - (average tumor volume at the end of treatment in a particular group - average tumor volume at the start of treatment in that group) / (average tumor volume at the end of treatment in the vehicle control group - average tumor volume at the start of treatment in the vehicle control group)] × 100%.
(§1) Experimental Groups and Dosing Regimen:
• 1, Vehicle control group • 2, Compound 2, 5 mg/kg, IV, BIW×3W • 3, Compound 250, 5 mg/kg, IV, BIW×3W • 4, Compound 253, 5 mg/kg, IV, BIW×3W

[5] = test system: Human colon cancer CR00090 cells; assay: CR00090 human colon cancer model (subcutaneous); assay type: in vivo, NPSG mice; conditions: day 28 post-treatment, 5 mg/kg, IV, BIW×4W; for tumor volume: vehicle control 1093 mm^3
Procedure: Test Example 5: Pharmacodynamic Evaluation of Compound 117, Compound 250, and Compound 253 in the CR00090 Human Colon Cancer Model
Human colon cancer CR00090 cells were thawed, counted, and mixed with Matrigel at a 1:1 ratio. Then, 0.1 mL (5×10^5 cells) of CR00090 cells were subcutaneously inoculated into the right dorsal region near the upper forelimb of each mouse (NPSG mice, female, 6-8 weeks old). Treatment was initiated when the average tumor volume reached approximately 84 mm^3. Tumor volume was measured twice weekly. At the end of the experiment, the tumor growth inhibition rate (TGI) was calculated as: TGI (%) = [1 - (average tumor volume at the end of treatment in a particular group - average tumor volume at the start of treatment in that group) / (average tumor volume at the end of treatment in the vehicle control group - average tumor volume at the start of treatment in the vehicle control group)] × 100%.
as §1
• 1, Vehicle control group • 2, Compound 117, 5 mg/kg, IV, BIW×4W • 3, Compound 250, 5 mg/kg, IV, BIW×4W • 4, Compound 253, 5 mg/kg, IV, BIW×4W

[6] = read-out: inhibition of topoisomerase I (Topo I) enzymatic activity, IC50; 0.75 U Topo I, pNO1 plasmid, 37 °C, 30 min; compounds listed by group (Group A / Group B)
[7] = 0.75 U Topo I, pNO1 plasmid, 37 °C, 30 min; compounds listed by group (Group A / Group B); read-out: inhibition of topoisomerase I (Topo I) enzymatic activity, IC50
[8] = HCT-116, 72 h incubation, CellTiter-Glo

In the case of `CC[C@@]1(O)C(=O)OCc2c1cc1n(c2=O)Cc2c-1c(=O)c1cc(F)ccc1n2CCN1C2CCC1CC(F)(F)C2` [Example 187], the IC50 [1, 6] is reported as 200 to 500 nM and the IC50 ([2]; HCT-116, 72 h) is reported as under 20 nM.
With `CC[C@@]1(O)C(=O)OCc2c1cc1n(c2=O)Cc2c-1c(=O)c1cc(F)ccc1n2CCN1CCC(F)(F)CC1` [Example 190] the IC50 [1, 6] was under 200 nM and the IC50 ([2]; HCT-116, 72 h) was under 20 nM.
`CC[C@@]1(O)C(=O)OCc2c1cc1n(c2=O)Cc2c-1c(=O)c1cc(F)c(CN(C)C3CC3)cc1n2C1CC1` [Example 225] showed an IC50 [1, 6] of 200 to 500 nM and an IC50 ([2]; HCT-116, 72 h) of under 20 nM.
In the case of `CC[C@@]1(O)C(=O)OCc2c1cc1n(c2=O)Cc2c-1c(=O)c1cc(F)c(CNC3CC3)cc1n2C1CCCC1` [Example 227], the IC50 [1, 6] is reported as 200 to 500 nM and the IC50 ([2]; HCT-116, 72 h) is reported as under 20 nM.
With `CC[C@@]1(O)C(=O)OCc2c1cc1n(c2=O)Cc2c-1c(=O)c1cc(F)c(CN(C)C3CC3)cc1n2C1CCCC1` [Example 228] the IC50 [1, 7] was 200 to 500 nM and the IC50 [2, 8] was under 20 nM.
In the case of `CC[C@@]1(O)C(=O)OCc2c1cc1n(c2=O)Cc2c-1c(=O)c1cc(F)ccc1n2[C@@H]1CCN(C)C1` [Example 250, (S)-4-ethyl-8-fluoro-4-hydroxy-11-((R)-1-methylpyrrolidin-3-yl)-1,12-dihydro-14H-pyrano[3',4':6,7]indolizino[2,1-b] quinoline-3,6,14(4H,11H)-trione], the IC50 [2, 8] is reported as under 20 nM, the bioavailability [3] is reported as 35.9% and the AUC(0-t) ([3]; iv, 2 mg/kg) is reported as 543 ng·h/mL. The Cmax ([3]; iv, 2 mg/kg) was 1210 ng/mL, the clearance ([3]; iv, 2 mg/kg) was 62.9 mL/min/kg and the half-life ([3]; iv, 2 mg/kg) was 17.9 min. It also gave an AUC(0-t) ([3]; po, 20 mg/kg) of 1930 ng·h/mL, a Cmax ([3]; po, 20 mg/kg) of 1120 ng/mL and a Tmax ([3]; po, 20 mg/kg) of 30 min. The half-life ([3]; po, 20 mg/kg) was 231 min, the TGI [4] was 83.1% and the tumor volume [4] was 326 mm^3. For the same compound, the TGI [5] was 80.0% and the tumor volume [5] was 286 mm^3.
In the case of `CC[C@@]1(O)C(=O)OCc2c1cc1n(c2=O)Cc2c-1c(=O)c1cc(F)ccc1n2[C@@H]1CCN(C2CCC2)C1` [Example 253, (S)-4-ethyl-8-fluoro-4-hydroxy-11-((R)-1-cyclobutylpyrrolidin-3-yl)-1,12-dihydro-14H-pyrano[3',4':6,7]indolizino[2,1-b]quinoline-3,6,14(4H,11H)-trione], the IC50 [2, 8] is reported as under 20 nM, the TGI [4] is reported as 80.6% and the tumor volume [4] is reported as 351 mm^3. For the same compound, the TGI [5] was 76.3% and the tumor volume [5] was 323 mm^3.
`CC[C@@]1(O)C(=O)OCc2c1cc1n(c2=O)Cc2c-1c(=O)c1cc(F)c(N)cc1n2-c1ccc2c(c1)OC(F)(F)O2` [Example 354] gave an IC50 [1, 6] of under 200 nM and an IC50 ([2]; HCT-116, 72 h) of under 20 nM.
`CC[C@@]1(O)C(=O)OCc2c1cc1n(c2=O)Cc2c-1c(=O)c1cc(F)c(N)cc1n2-c1cc(OC)cc(C(C)C)c1` [Example 355] gave an IC50 [1, 7] of 200 to 500 nM and an IC50 [2, 8] of under 20 nM.

Reference: patent EP4778929A1, “NOVEL TYPE I TOPOISOMERASE INHIBITOR, AND PREPARATION METHOD THEREFOR AND USE THEREOF” (priority 2023, dated 2025)
